In ChEMBL document CHEMBL4138175, “Newly designed organotin(IV) carboxylates with peptide linkage: Synthesis, structural elucidation, physicochemical characterizations and pharmacological investigations” (Eur J Med Chem, 2018):
Active and inactive are the calls of the source. The calls are words filed in the database; no cut-off is given here.

Tested on: Escherichia coli
Test: Antibacterial activity against Escherichia coli assessed as zone of inhibition by measuring activity index after 24 to 48 hrs by well diffusion method relative to ampicillin
Type: functional, organism-based

Substance	Activity_index
Triethylstannyl 2-(4-methoxy-2-nitrophenylcarbamoyl)benzoate	inactive

Tested on: Leishmania major
Test: Antileishmanial activity against Leishmania major promastigotes at 10 uM after 72 hrs by MTT assay relative to control
Type: functional

Substance	Activity
Tricyclohexylstannyl 2-(4-methoxy-2-nitrophenylcarbamoyl)benzoate	63.5%
Triethylstannyl 2-(4-methoxy-2-nitrophenylcarbamoyl)benzoate	53.2%
Trimethylstannyl 2-(4-methoxy-2-nitrophenylcarbamoyl)benzoate	66.5%

Tested on: Staphylococcus aureus
Test: Antibacterial activity against Staphylococcus aureus assessed as zone of inhibition after 24 to 48 hrs by well diffusion method
Type: functional

Substance	inhibition zone (IZ)
Tricyclohexylstannyl 2-(4-methoxy-2-nitrophenylcarbamoyl)benzoate	inactive
Triethylstannyl 2-(4-methoxy-2-nitrophenylcarbamoyl)benzoate	19.3 mm
Trimethylstannyl 2-(4-methoxy-2-nitrophenylcarbamoyl)benzoate	4.66 mm

Tested on: Pseudomonas aeruginosa
Test: Antibacterial activity against Pseudomonas aeruginosa assessed as zone of inhibition by measuring activity index after 24 to 48 hrs by well diffusion method relative to amoxicillin
Type: functional, organism-based

Substance	Activity index
Tricyclohexylstannyl 2-(4-methoxy-2-nitrophenylcarbamoyl)benzoate	3.11
Trimethylstannyl 2-(4-methoxy-2-nitrophenylcarbamoyl)benzoate	2.61

Tested on: Leishmania major
Test: Antileishmanial activity against Leishmania major promastigotes at 1 uM after 72 hrs by MTT assay relative to control
Type: functional

Substance	Activity
Tricyclohexylstannyl 2-(4-methoxy-2-nitrophenylcarbamoyl)benzoate	58.8%
Triethylstannyl 2-(4-methoxy-2-nitrophenylcarbamoyl)benzoate	49.4%
Trimethylstannyl 2-(4-methoxy-2-nitrophenylcarbamoyl)benzoate	62.9%

Tested on: Pseudomonas aeruginosa
Test: Antibacterial activity against Pseudomonas aeruginosa assessed as zone of inhibition by measuring activity index after 24 to 48 hrs by well diffusion method relative to penicillin G
Type: functional, organism-based

Substance	Activity index
Tricyclohexylstannyl 2-(4-methoxy-2-nitrophenylcarbamoyl)benzoate	3.11
Trimethylstannyl 2-(4-methoxy-2-nitrophenylcarbamoyl)benzoate	2.61

Tested on: Leishmania major
Test: Antileishmanial activity against Leishmania major promastigotes at 100 uM after 72 hrs by MTT assay relative to control
Type: functional

Substance	Activity
Tricyclohexylstannyl 2-(4-methoxy-2-nitrophenylcarbamoyl)benzoate	67.8%
Triethylstannyl 2-(4-methoxy-2-nitrophenylcarbamoyl)benzoate	56.4%
Trimethylstannyl 2-(4-methoxy-2-nitrophenylcarbamoyl)benzoate	67.8%

Tested on: Klebsiella pneumoniae
Test: Antibacterial activity against Klebsiella pneumoniae assessed as zone of inhibition by measuring activity index after 24 to 48 hrs by well diffusion method relative to ampicillin
Type: functional, organism-based

Substance	Activity index
Tricyclohexylstannyl 2-(4-methoxy-2-nitrophenylcarbamoyl)benzoate	3.09
Triethylstannyl 2-(4-methoxy-2-nitrophenylcarbamoyl)benzoate	4.61
Trimethylstannyl 2-(4-methoxy-2-nitrophenylcarbamoyl)benzoate	3.44

Tested on: Streptococcus pyogenes
Test: Antibacterial activity against Streptococcus pyogenes assessed as zone of inhibition after 24 to 48 hrs by well diffusion method
Type: functional

Substance	inhibition zone (IZ)
Tricyclohexylstannyl 2-(4-methoxy-2-nitrophenylcarbamoyl)benzoate	16.7 mm
Triethylstannyl 2-(4-methoxy-2-nitrophenylcarbamoyl)benzoate	15.7 mm
Trimethylstannyl 2-(4-methoxy-2-nitrophenylcarbamoyl)benzoate	7.33 mm

Tested on: Escherichia coli
Test: Antibacterial activity against Escherichia coli assessed as zone of inhibition by measuring activity index after 24 to 48 hrs by well diffusion method relative to penicillin G
Type: functional, organism-based

Substance	Activity_index
Triethylstannyl 2-(4-methoxy-2-nitrophenylcarbamoyl)benzoate	inactive

Tested on: Pseudomonas aeruginosa
Test: Antibacterial activity against Pseudomonas aeruginosa assessed as zone of inhibition after 24 to 48 hrs by well diffusion method
Type: functional

Substance	inhibition zone (IZ)
Tricyclohexylstannyl 2-(4-methoxy-2-nitrophenylcarbamoyl)benzoate	18.7 mm
Triethylstannyl 2-(4-methoxy-2-nitrophenylcarbamoyl)benzoate	inactive
Trimethylstannyl 2-(4-methoxy-2-nitrophenylcarbamoyl)benzoate	15.7 mm

Tested on: Serratia marcescens
Test: Antibacterial activity against Serratia marcescens assessed as zone of inhibition by measuring activity index after 24 to 48 hrs by well diffusion method relative to tetracycline
Type: functional, organism-based

Substance	Activity_index
Tricyclohexylstannyl 2-(4-methoxy-2-nitrophenylcarbamoyl)benzoate	inactive

Tested on: NCI-H157
Test: Cytotoxicity against human NCI-H157 cells at 100 uM after 48 hrs by sulforhodamine B assay
Type: functional

Substance	Activity
Tricyclohexylstannyl 2-(4-methoxy-2-nitrophenylcarbamoyl)benzoate	59.3%
Triethylstannyl 2-(4-methoxy-2-nitrophenylcarbamoyl)benzoate	62.4%
Trimethylstannyl 2-(4-methoxy-2-nitrophenylcarbamoyl)benzoate	66.4%

Tested on: Staphylococcus aureus
Test: Antibacterial activity against Staphylococcus aureus assessed as zone of inhibition by measuring activity index after 24 to 48 hrs by well diffusion method relative to ampicillin
Type: functional, organism-based

Substance	Activity_index
Tricyclohexylstannyl 2-(4-methoxy-2-nitrophenylcarbamoyl)benzoate	inactive

Tested on: Staphylococcus aureus
Test: Antibacterial activity against Staphylococcus aureus assessed as zone of inhibition by measuring activity index after 24 to 48 hrs by well diffusion method relative to penicillin G
Type: functional, organism-based

Substance	Activity_index
Tricyclohexylstannyl 2-(4-methoxy-2-nitrophenylcarbamoyl)benzoate	inactive

Tested on: Staphylococcus epidermidis
Test: Antibacterial activity against Staphylococcus epidermidis assessed as zone of inhibition after 24 to 48 hrs by well diffusion method
Type: functional

Substance	inhibition zone (IZ)
Tricyclohexylstannyl 2-(4-methoxy-2-nitrophenylcarbamoyl)benzoate	12.3 mm
Triethylstannyl 2-(4-methoxy-2-nitrophenylcarbamoyl)benzoate	11 mm
Trimethylstannyl 2-(4-methoxy-2-nitrophenylcarbamoyl)benzoate	10.3 mm

Tested on: Serratia marcescens
Test: Antibacterial activity against Serratia marcescens assessed as zone of inhibition by measuring activity index after 24 to 48 hrs by well diffusion method relative to penicillin G
Type: functional

Substance	Activity index
Triethylstannyl 2-(4-methoxy-2-nitrophenylcarbamoyl)benzoate	1.92
Trimethylstannyl 2-(4-methoxy-2-nitrophenylcarbamoyl)benzoate	1.67

Tested on: Staphylococcus epidermidis
Test: Antibacterial activity against Staphylococcus epidermidis assessed as zone of inhibition by measuring activity index after 24 to 48 hrs by well diffusion method relative to tetracycline
Type: functional, organism-based

Substance	Activity index
Tricyclohexylstannyl 2-(4-methoxy-2-nitrophenylcarbamoyl)benzoate	1.23
Triethylstannyl 2-(4-methoxy-2-nitrophenylcarbamoyl)benzoate	1.1
Trimethylstannyl 2-(4-methoxy-2-nitrophenylcarbamoyl)benzoate	1.03

Tested on: Escherichia coli
Test: Antibacterial activity against Escherichia coli assessed as zone of inhibition by measuring activity index after 24 to 48 hrs by well diffusion method relative to tetracycline
Type: functional

Substance	Activity index
Trimethylstannyl 2-(4-methoxy-2-nitrophenylcarbamoyl)benzoate	8.33

Tested on: Leishmania major
Test: Antileishmanial activity against Leishmania major promastigotes at 0.1 uM after 72 hrs by MTT assay relative to control
Type: functional

Substance	Activity
Tricyclohexylstannyl 2-(4-methoxy-2-nitrophenylcarbamoyl)benzoate	55.2%
Triethylstannyl 2-(4-methoxy-2-nitrophenylcarbamoyl)benzoate	45.3%
Trimethylstannyl 2-(4-methoxy-2-nitrophenylcarbamoyl)benzoate	58.8%

Tested on: NCI-H157
Test: Cytotoxicity against human NCI-H157 cells after 48 hrs by sulforhodamine B assay
Type: functional, cell-based

Substance	Activity
Tricyclohexylstannyl 2-(4-methoxy-2-nitrophenylcarbamoyl)benzoate	Dose-dependent effect
Triethylstannyl 2-(4-methoxy-2-nitrophenylcarbamoyl)benzoate	Dose-dependent effect
Trimethylstannyl 2-(4-methoxy-2-nitrophenylcarbamoyl)benzoate	Dose-dependent effect

Tested on: Pseudomonas aeruginosa
Test: Antibacterial activity against Pseudomonas aeruginosa assessed as zone of inhibition by measuring activity index after 24 to 48 hrs by well diffusion method relative to tetracycline
Type: functional, organism-based

Substance	Activity index
Tricyclohexylstannyl 2-(4-methoxy-2-nitrophenylcarbamoyl)benzoate	3.11
Trimethylstannyl 2-(4-methoxy-2-nitrophenylcarbamoyl)benzoate	2.61

Tested on: DNA
Test: Binding affinity to single-stranded DNA (unknown origin) assessed as red shift up to 72 uM after 10 mins by UV-visible spectrometric method
Type: nucleic-acid assay

Activity	Substance
< 3 nm	Triethylstannyl 2-(4-methoxy-2-nitrophenylcarbamoyl)benzoate
< 3 nm	Trimethylstannyl 2-(4-methoxy-2-nitrophenylcarbamoyl)benzoate

Tested on: Serratia marcescens
Test: Antibacterial activity against Serratia marcescens assessed as zone of inhibition after 24 to 48 hrs by well diffusion method
Type: functional

Substance	inhibition zone (IZ)
Tricyclohexylstannyl 2-(4-methoxy-2-nitrophenylcarbamoyl)benzoate	inactive
Triethylstannyl 2-(4-methoxy-2-nitrophenylcarbamoyl)benzoate	15.3 mm
Trimethylstannyl 2-(4-methoxy-2-nitrophenylcarbamoyl)benzoate	13.3 mm

Tested on: Escherichia coli
Test: Antibacterial activity against Escherichia coli assessed as zone of inhibition after 24 to 48 hrs by well diffusion method
Type: functional

Substance	inhibition zone (IZ)
Tricyclohexylstannyl 2-(4-methoxy-2-nitrophenylcarbamoyl)benzoate	inactive
Triethylstannyl 2-(4-methoxy-2-nitrophenylcarbamoyl)benzoate	inactive
Trimethylstannyl 2-(4-methoxy-2-nitrophenylcarbamoyl)benzoate	16.7 mm

Tested on: Escherichia coli
Test: Antibacterial activity against Escherichia coli assessed as zone of inhibition by measuring activity index after 24 to 48 hrs by well diffusion method relative to amoxicillin
Type: functional, organism-based

Substance	Activity_index
Triethylstannyl 2-(4-methoxy-2-nitrophenylcarbamoyl)benzoate	inactive

Tested on: NCI-H157
Test: Cytotoxicity against human NCI-H157 cells at 10 uM after 48 hrs by sulforhodamine B assay
Type: functional

Substance	Activity
Tricyclohexylstannyl 2-(4-methoxy-2-nitrophenylcarbamoyl)benzoate	54%
Triethylstannyl 2-(4-methoxy-2-nitrophenylcarbamoyl)benzoate	57.4%
Trimethylstannyl 2-(4-methoxy-2-nitrophenylcarbamoyl)benzoate	62.3%

Tested on: Staphylococcus aureus
Test: Antibacterial activity against Staphylococcus aureus assessed as zone of inhibition by measuring activity index after 24 to 48 hrs by well diffusion method relative to amoxicillin
Type: functional, organism-based

Substance	Activity_index
Tricyclohexylstannyl 2-(4-methoxy-2-nitrophenylcarbamoyl)benzoate	inactive

Tested on: Klebsiella pneumoniae
Test: Antibacterial activity against Klebsiella pneumoniae assessed as zone of inhibition after 24 to 48 hrs by well diffusion method
Type: functional

Substance	inhibition zone (IZ)
Tricyclohexylstannyl 2-(4-methoxy-2-nitrophenylcarbamoyl)benzoate	18.5 mm
Triethylstannyl 2-(4-methoxy-2-nitrophenylcarbamoyl)benzoate	27.7 mm
Trimethylstannyl 2-(4-methoxy-2-nitrophenylcarbamoyl)benzoate	20.2 mm

Tested on: Staphylococcus epidermidis
Test: Antibacterial activity against Staphylococcus epidermidis assessed as zone of inhibition by measuring activity index after 24 to 48 hrs by well diffusion method relative to amoxicillin
Type: functional, organism-based

Substance	Activity index
Tricyclohexylstannyl 2-(4-methoxy-2-nitrophenylcarbamoyl)benzoate	6.17
Triethylstannyl 2-(4-methoxy-2-nitrophenylcarbamoyl)benzoate	5.5
Trimethylstannyl 2-(4-methoxy-2-nitrophenylcarbamoyl)benzoate	5.17

Tested on: Pseudomonas aeruginosa
Test: Antibacterial activity against Pseudomonas aeruginosa assessed as zone of inhibition by measuring activity index after 24 to 48 hrs by well diffusion method relative to ampicillin
Type: functional, organism-based

Substance	Activity_index
Triethylstannyl 2-(4-methoxy-2-nitrophenylcarbamoyl)benzoate	inactive

Tested on: NCI-H157
Test: Cytotoxicity against human NCI-H157 cells at 1 uM after 48 hrs by sulforhodamine B assay
Type: functional

Substance	Activity
Tricyclohexylstannyl 2-(4-methoxy-2-nitrophenylcarbamoyl)benzoate	50.6%
Triethylstannyl 2-(4-methoxy-2-nitrophenylcarbamoyl)benzoate	43.7%
Trimethylstannyl 2-(4-methoxy-2-nitrophenylcarbamoyl)benzoate	58.2%

Tested on: Klebsiella pneumoniae
Test: Antibacterial activity against Klebsiella pneumoniae assessed as zone of inhibition by measuring activity index after 24 to 48 hrs by well diffusion method relative to tetracycline
Type: functional, organism-based

Substance	Activity index
Tricyclohexylstannyl 2-(4-methoxy-2-nitrophenylcarbamoyl)benzoate	1.32
Triethylstannyl 2-(4-methoxy-2-nitrophenylcarbamoyl)benzoate	1.98
Trimethylstannyl 2-(4-methoxy-2-nitrophenylcarbamoyl)benzoate	1.44

Tested on: Klebsiella pneumoniae
Test: Antibacterial activity against Klebsiella pneumoniae assessed as zone of inhibition by measuring activity index after 24 to 48 hrs by well diffusion method relative to amoxicillin
Type: functional, organism-based

Substance	Activity index
Tricyclohexylstannyl 2-(4-methoxy-2-nitrophenylcarbamoyl)benzoate	3.09
Triethylstannyl 2-(4-methoxy-2-nitrophenylcarbamoyl)benzoate	4.61
Trimethylstannyl 2-(4-methoxy-2-nitrophenylcarbamoyl)benzoate	3.44

Tested on: Staphylococcus aureus
Test: Antibacterial activity against Staphylococcus aureus assessed as zone of inhibition by measuring activity index after 24 to 48 hrs by well diffusion method relative to tetracycline
Type: functional, organism-based

Substance	Activity_index
Tricyclohexylstannyl 2-(4-methoxy-2-nitrophenylcarbamoyl)benzoate	inactive

Tested on: DNA
Test: Binding affinity to single-stranded DNA (unknown origin) assessed as DNA intercalation by measuring increase in relative viscosity of DNA-compound complex by viscometry
Type: nucleic-acid assay

Activity	Substance
Active	Triethylstannyl 2-(4-methoxy-2-nitrophenylcarbamoyl)benzoate
Active	Trimethylstannyl 2-(4-methoxy-2-nitrophenylcarbamoyl)benzoate

Tested on: NCI-H157
Test: Cytotoxicity against human NCI-H157 cells at 0.1 uM after 48 hrs by sulforhodamine B assay
Type: functional

Substance	Activity
Tricyclohexylstannyl 2-(4-methoxy-2-nitrophenylcarbamoyl)benzoate	43.6%
Triethylstannyl 2-(4-methoxy-2-nitrophenylcarbamoyl)benzoate	39.8%
Trimethylstannyl 2-(4-methoxy-2-nitrophenylcarbamoyl)benzoate	54.4%

Tested on: Serratia marcescens
Test: Antibacterial activity against Serratia marcescens assessed as zone of inhibition by measuring activity index after 24 to 48 hrs by well diffusion method relative to ampicillin
Type: functional

Substance	Activity index
Triethylstannyl 2-(4-methoxy-2-nitrophenylcarbamoyl)benzoate	1.92
Trimethylstannyl 2-(4-methoxy-2-nitrophenylcarbamoyl)benzoate	1.67

Tested on: Serratia marcescens
Test: Antibacterial activity against Serratia marcescens assessed as zone of inhibition by measuring activity index after 24 to 48 hrs by well diffusion method relative to amoxicillin
Type: functional

Substance	Activity index
Triethylstannyl 2-(4-methoxy-2-nitrophenylcarbamoyl)benzoate	2.55
Trimethylstannyl 2-(4-methoxy-2-nitrophenylcarbamoyl)benzoate	2.22

Tested on: DNA
Test: Binding affinity to single-stranded DNA (unknown origin) after 10 mins by UV-visible spectrometric method
Type: nucleic-acid assay

K	Substance
9.3 ×10³ /M	Triethylstannyl 2-(4-methoxy-2-nitrophenylcarbamoyl)benzoate
4.2 ×10³ /M	Trimethylstannyl 2-(4-methoxy-2-nitrophenylcarbamoyl)benzoate
